Measured values published in US20250325524A1, “COMPOSITIONS AND METHODS FOR TREATING RENAL INJURY” (CASE WESTERN RESERVE UNIVERSITY, priority 2018, published 2025).

What was measured:
mice with ischemic AKI = experiment: survival and body weight over 7 days after renal IRI; assay type: in vivo; settings: bilateral IRI 30 minutes, 5 mg/kg i.p. once pre-IRI then twice daily for 7 days
Method: (A) Experimental setup for toxicity. Ischemic AKI induced by bilaterally clamping the renal arteries for 30 minutes, followed by reperfusion. […] (n=10 per group). (B, C) Survival curves and body weight over 7 days. Kaplan-Meier analysis of survival stratified by AKI stage. Data are means±SEM. *P<0.05 vs. corresponding BI30_vehicle.

[1] = system: renal arterioles in the outer medulla; experiment: renal vasodilatation in the outer medulla (α-SMA-positive arteriole area); assay type: in vivo, mice; settings: α-SMA staining
Method: (§1) Mice were anesthetized with isoflurane using a vaporizer and placed on a heating pad to maintain their body temperature at 37° C. Both renal arteries were identified through dorsal incisions and clamped for 20, 30, 35, or 37 minutes. Reperfusion was confirmed visually upon release of the clamps. Surgical wounds were closed, and mice were administered 1 mL of saline i.p. The mice were kept in a warm incubator until they regained consciousness and were allowed to recover with ad libitum access to food and water. […] Serum and kidney tissue were collected 24 hours after renal IRI.
To quantify vasodilation, the inner arteriole area of the outer medulla was determined using α-SMA-stained sections. After counterstaining with Mayer's hematoxylin, the inner area of α-SMA-positive vessels in the outer medulla (×25) was measured using ImageJ. The results are expressed as average areas of renal arteries outer medulla.

[2] = system: cAMP/AMP/adenosine signaling pathway; experiment: renal IRI model: cAMP, AMP and adenosine levels; assay type: in vivo; settings: IRI mice
Method: as §1
After reperfusion for 24 hours, kidney tissues were harvested, homogenized in 10 volumes of 0.1 M HCl, and centrifuged for 10 minutes at 12,000 rpm. The protein concentration was determined by BCA assay. cAMP levels in kidney tissues were measured using a cAMP Complete ELISA Kit (ADI-900-163; Enzo Life Science) an adenosine Assay Kit (KA4547; abnova) and high-performance liquid chromatography (HPLC).

malondialdehyde (MDA) = experiment: renal IRI model: malondialdehyde (MDA) in kidney tissue; assay type: in vivo; settings: IRI mice, single pre-IRI dose; vehicle peak 48% at 2 hours
Method: Mice were anesthetized with isoflurane using a vaporizer and placed on a heating pad to maintain their body temperature at 37° C. Both renal arteries were identified through dorsal incisions and clamped for 20, 30, 35, or 37 minutes. Reperfusion was confirmed visually upon release of the clamps. Surgical wounds were closed, and mice were administered 1 mL of saline i.p. The mice were kept in a warm incubator until they regained consciousness and were allowed to recover with ad libitum access to food and water. […]
Reactive oxygen species (ROS) levels were determined by measurement of malondialdehyde (MDA), the end product of lipid peroxidation in […]. Free MDA reacts with thiobarbituric acid (TBA) at 95° C. to generate an MDA-TBA adduct, which can be quantified colorimetrically at a wavelength of 532 nm. MDA levels were measured in kidney lysates using a lipid peroxidation (MDA) assay kit (ab118970; Abcam). Results were corrected for total protein level and are expressed as […].

CCCC[S+]([O-])c1sc2nc(-c3cccs3)cc(-c3ccccc3)c2c1N (stereo not drawn) [SW033291]
body weight at POD7 (mice with ischemic AKI): regained greater weights than did vehicle treated mice
survival (mice with ischemic AKI): survived at 7 days
renal arteriole area in the outer medulla ([1]; IRI mice): significantly increased
renal arteriole area in the outer medulla ([1]; normal mice): increased
levels of adenosine in the kidney [2]: increased
levels of serum adenosine [2]: significantly increased
AMP level in kidney tissue ([2]; decrease after IRI vs sham): substantially reversed
cAMP level in kidney tissue ([2]; decrease after IRI vs sham): substantially reversed
increase of malondialdehyde (MDA) above baseline (malondialdehyde (MDA)): 14%
